Laboratory results taken from patent US20160136246A1, “Novel Uses of GLP-1 Receptor Agonists in Patients Treated with Insulin and/or Suffering from Type 1 Diabetes” (NOVO NORDISK A/S, priority 2013, published 2016).
Each block holds one compound with its values, some of them ahead of it.

What was measured:
[1] = in humans; cited from earlier work
[2] = test system: adults with type 1 diabetes; assay: Stepwise hypoglycaemic clamp at the end of each treatment period; assay type: in vivo, human
Experimental: A stepwise hypoglycaemic clamp was performed at the end of each treatment period via controlled i.v. insulin/glucose infusion (FIG. 5). The successive plasma glucose (PG) levels were 5.5, 3.5, 2.5 mmol/L (nadir), and 4.0 mmol/L (recovery). Counterregulatory hormones (glucagon, adrenalin, noradrenalin, cortisol, and growth hormone) and vital signs (pulse, blood pressure) were measured at each successive PG level during the clamp. Glucose infusion rate was also assessed.

[3] = test system: adults with type 1 diabetes; assay: Randomised, double-blind crossover trial of liraglutide adjunct to insulin, 4 weeks of treatment: glycaemic control and safety; assay type: in vivo, human; details: for Asymptomatic hypoglycaemic episodes, N = number of subjects / Asymptomatic hypoglycaemic episodes, percentage of subjects / Documented symptomatic hypoglycaemic episodes, N = number of subjects / Documented symptomatic hypoglycaemic episodes, percentage of subjects / Probable symptomatic hypoglycaemic episodes, E = number of events / Probable symptomatic hypoglycaemic episodes, N = number of subjects / Probable symptomatic hypoglycaemic episodes, percentage of subjects / Severe hypoglycaemic episodes, E = number of events / Severe hypoglycaemic episodes, N = number of subjects / Severe hypoglycaemic episodes, percentage of subjects / Total ADA classified hypoglycaemic episodes, E = number of events / Total ADA classified hypoglycaemic episodes, N = number of subjects / Total ADA classified hypoglycaemic episodes, percentage of subjects: during treatment
Experimental: Subjects received target dose for a minimum of 2 weeks.
After 4 weeks of treatment, estimated treatment differences in insulin dose, HbA1c, pulse and body weight were assessed. Hypoglycaemia and hypoglycaemic episodes and overall safety parameters were assessed throughout the treatment period.
Hypoglycaemia and/or hypoglycaemic episodes were defined and assessed according to the ADA Hypoglycaemic Classification (FIG. 3).

[4] = 0.6 mg liraglutide, during the trial
[5] = 1.2 mg liraglutide, during the trial
[6] = 1.8 mg liraglutide, during the trial

Compound: GLP-1: glucagon-like peptide-1, a product of proglucagon, gut hormone
plasma half-life [1]: 2 min

Change in pulse from plasma glucose […] to nadir, estimated treatment difference ([2]; 0.6 mg group vs placebo): 0.6 BPM | Change in pulse from plasma glucose […] to nadir, estimated treatment difference ([2]; 1.2 mg group vs placebo): 2.3 BPM | Change in pulse from plasma glucose […] to nadir, estimated treatment difference ([2]; 1.8 mg group vs placebo): −3.4 BPM | Pulse compared to placebo ([2]; all plasma glucose levels, all liraglutide doses): significantly higher | Other counterregulatory hormones to hypoglycaemia, liraglutide vs placebo ([2]; during hypoglycaemic clamp): no systematic differences
Compound: CCCCCCCCCCCCCCCC(=O)N[C@@H](CCC(=O)NCCCC[C@H](NC(=O)[C@H](C)NC(=O)[C@H](C)NC(=O)[C@H](CCC(N)=O)NC(=O)CNC(=O)[C@H](CCC(=O)O)NC(=O)[C@H](CC(C)C)NC(=O)[C@H](Cc1ccc(O)cc1)NC(=O)[C@H](CO)NC(=O)[C@H](CO)NC(=O)[C@@H](NC(=O)[C@H](CC(=O)O)NC(=O)[C@H](CO)NC(=O)[C@@H](NC(=O)[C@H](Cc1ccccc1)NC(=O)[C@@H](NC(=O)CNC(=O)[C@H](CCC(=O)O)NC(=O)[C@H](C)NC(=O)[C@@H](N)Cc1cnc[nH]1)[C@@H](C)O)[C@@H](C)O)C(C)C)C(=O)N[C@@H](CCC(=O)O)C(=O)N[C@@H](Cc1ccccc1)C(=O)N[C@H](C(=O)N[C@@H](C)C(=O)N[C@@H](Cc1c[nH]c2ccccc12)C(=O)N[C@@H](CC(C)C)C(=O)N[C@H](C(=O)N[C@@H](CCCNC(=N)N)C(=O)NCC(=O)N[C@@H](CCCNC(=N)N)C(=O)NCC(=O)O)C(C)C)[C@@H](C)CC)C(=O)O [liraglutide]
Systolic and diastolic blood pressure, liraglutide vs placebo ([2]; during hypoglycaemic clamp): no systematic differences | AEs leading to withdrawal, E = number of events [3, 4]: 1 | AEs leading to withdrawal, N = number of subjects [3, 4]: 1 | AEs leading to withdrawal, percentage of subjects [3, 4]: 6.7% | Abdominal distention, E = number of events [3, 4]: 1 | Abdominal distention, N = number of subjects [3, 4]: 1 | Abdominal distention, percentage of subjects [3, 4]: 6.7% | Abdominal pain (N % E, given as a single 0) [3, 4]: 0/0 | Adverse events, total number of events, E = number of events [3, 4]: 27 | Adverse events, total number of events, N = number of subjects [3, 4]: 12 | Adverse events, total number of events, percentage of subjects [3, 4]: 80.0% | Diarrhea (N % E, given as a single 0) [3, 4]: 0/ | Dyspepsia (N % E, given as a single 0) [3, 4]: 0/0 | Flatulence, E = number of events [3, 4]: 1 | Flatulence, N = number of subjects [3, 4]: 1 | Flatulence, percentage of subjects [3, 4]: 6.7% | Nausea, E = number of events [3, 4]: 8 | Nausea, N = number of subjects [3, 4]: 8 | Nausea, percentage of subjects [3, 4]: 53.3% | Regurgitation, E = number of events [3, 4]: 1 | Regurgitation, N = number of subjects [3, 4]: 1 | Regurgitation, percentage of subjects [3, 4]: 6.7% | Serious AEs (N % E, given as a single 0) [3, 4]: 0/0 | Total number of GI AEs, E = number of events [3, 4]: 12 | Total number of GI AEs, N = number of subjects [3, 4]: 10 | Total number of GI AEs, percentage of subjects [3, 4]: 66.7% | Upper abdominal pain (N % E, given as a single 0) [3, 4]: 0/0 | Vomiting, E = number of events [3, 4]: 1 | Vomiting, N = number of subjects [3, 4]: 1 | Vomiting, percentage of subjects [3, 4]: 6.7% | Asymptomatic hypoglycaemic episodes, N = number of subjects ([3]; 0.6 mg liraglutide): 12 | Asymptomatic hypoglycaemic episodes, percentage of subjects ([3]; 0.6 mg liraglutide): 80.0% | Documented symptomatic hypoglycaemic episodes, N = number of subjects ([3]; 0.6 mg liraglutide): 13 | Documented symptomatic hypoglycaemic episodes, percentage of subjects ([3]; 0.6 mg liraglutide): 86.7% | Probable symptomatic hypoglycaemic episodes, E = number of events ([3]; 0.6 mg liraglutide): 3 | Probable symptomatic hypoglycaemic episodes, N = number of subjects ([3]; 0.6 mg liraglutide): 1 | Probable symptomatic hypoglycaemic episodes, percentage of subjects ([3]; 0.6 mg liraglutide): 6.7% | Severe hypoglycaemic episodes, E = number of events ([3]; 0.6 mg liraglutide): 0 (0) 0/ | Severe hypoglycaemic episodes, N = number of subjects ([3]; 0.6 mg liraglutide): 0 (0) 0/ | Severe hypoglycaemic episodes, percentage of subjects ([3]; 0.6 mg liraglutide): 0 (0) 0/ % | Total ADA classified hypoglycaemic episodes, E = number of events ([3]; 0.6 mg liraglutide): 289 | Total ADA classified hypoglycaemic episodes, N = number of subjects ([3]; 0.6 mg liraglutide): 14 | Total ADA classified hypoglycaemic episodes, percentage of subjects ([3]; 0.6 mg liraglutide): 93.3% | AEs leading to withdrawal, E = number of events [3, 5]: 1 | AEs leading to withdrawal, N = number of subjects [3, 5]: 1 | AEs leading to withdrawal, percentage of subjects [3, 5]: 7.1% | Abdominal distention, E = number of events [3, 5]: 3 | Abdominal distention, N = number of subjects [3, 5]: 3 | Abdominal distention, percentage of subjects [3, 5]: 21.4% | Abdominal pain, E = number of events [3, 5]: 1 | Abdominal pain, N = number of subjects [3, 5]: 1 | Abdominal pain, percentage of subjects [3, 5]: 7.1% | Adverse events, total number of events, E = number of events [3, 5]: 45 | Adverse events, total number of events, N = number of subjects [3, 5]: 14 | Adverse events, total number of events, percentage of subjects [3, 5]: 100% | Diarrhea, E = number of events [3, 5]: 1 | Diarrhea, N = number of subjects [3, 5]: 1 | Diarrhea, percentage of subjects [3, 5]: 7.1% | Dyspepsia, E = number of events [3, 5]: 1 | Dyspepsia, N = number of subjects [3, 5]: 1 | Dyspepsia, percentage of subjects [3, 5]: 7.1% | Flatulence, E = number of events [3, 5]: 1 | Flatulence, N = number of subjects [3, 5]: 1 | Flatulence, percentage of subjects [3, 5]: 7.1% | Nausea, E = number of events [3, 5]: 14 | Nausea, N = number of subjects [3, 5]: 11 | Nausea, percentage of subjects [3, 5]: 78.6% | Regurgitation, E = number of events [3, 5]: 2 | Regurgitation, N = number of subjects [3, 5]: 2 | Regurgitation, percentage of subjects [3, 5]: 14.3% | Serious AEs (N % E, given as a single 0) [3, 5]: 0/0 | Total number of GI AEs, E = number of events [3, 5]: 24 | Total number of GI AEs, N = number of subjects [3, 5]: 12 | Total number of GI AEs, percentage of subjects [3, 5]: 85.7% | Upper abdominal pain (N % E, given as a single 0) [3, 5]: 0/0 | Vomiting, E = number of events [3, 5]: 1 | Vomiting, N = number of subjects [3, 5]: 1 | Vomiting, percentage of subjects [3, 5]: 7.1% | Asymptomatic hypoglycaemic episodes, N = number of subjects ([3]; 1.2 mg liraglutide): 10 | Asymptomatic hypoglycaemic episodes, percentage of subjects ([3]; 1.2 mg liraglutide): 71.4% | Documented symptomatic hypoglycaemic episodes, N = number of subjects ([3]; 1.2 mg liraglutide): 12 | Documented symptomatic hypoglycaemic episodes, percentage of subjects ([3]; 1.2 mg liraglutide): 85.7% | Probable symptomatic hypoglycaemic episodes, E = number of events ([3]; 1.2 mg liraglutide): 1 | Probable symptomatic hypoglycaemic episodes, N = number of subjects ([3]; 1.2 mg liraglutide): 1 | Probable symptomatic hypoglycaemic episodes, percentage of subjects ([3]; 1.2 mg liraglutide): 7.1% | Severe hypoglycaemic episodes, E = number of events ([3]; 1.2 mg liraglutide): 0 (0) 0/ | Severe hypoglycaemic episodes, N = number of subjects ([3]; 1.2 mg liraglutide): 0 (0) 0/ | Severe hypoglycaemic episodes, percentage of subjects ([3]; 1.2 mg liraglutide): 0 (0) 0/ % | Total ADA classified hypoglycaemic episodes, E = number of events ([3]; 1.2 mg liraglutide): 263 | Total ADA classified hypoglycaemic episodes, N = number of subjects ([3]; 1.2 mg liraglutide): 13 | Total ADA classified hypoglycaemic episodes, percentage of subjects ([3]; 1.2 mg liraglutide): 92.9% | AEs leading to withdrawal, E = number of events [3, 6]: 1 | AEs leading to withdrawal, N = number of subjects [3, 6]: 1 | AEs leading to withdrawal, percentage of subjects [3, 6]: 7.1% | Abdominal distention, E = number of events [3, 6]: 5 | Abdominal distention, N = number of subjects [3, 6]: 5 | Abdominal distention, percentage of subjects [3, 6]: 35.7% | Abdominal pain (N % E, given as a single 0) [3, 6]: 0/ | Adverse events, total number of events, E = number of events [3, 6]: 54 | Adverse events, total number of events, N = number of subjects [3, 6]: 13 | Adverse events, total number of events, percentage of subjects [3, 6]: 92.9% | Diarrhea, E = number of events [3, 6]: 5 | Diarrhea, N = number of subjects [3, 6]: 5 | Diarrhea, percentage of subjects [3, 6]: 35.7% | Dyspepsia, E = number of events [3, 6]: 1 | Dyspepsia, N = number of subjects [3, 6]: 1 | Dyspepsia, percentage of subjects [3, 6]: 7.1% | Flatulence (N % E, given as a single 0) [3, 6]: 0/0 | Nausea, E = number of events [3, 6]: 13 | Nausea, N = number of subjects [3, 6]: 11 | Nausea, percentage of subjects [3, 6]: 78.6% | Regurgitation, E = number of events [3, 6]: 1 | Regurgitation, N = number of subjects [3, 6]: 1 | Regurgitation, percentage of subjects [3, 6]: 7.1% | Serious AEs (N % E, given as a single 0) [3, 6]: 0/0 | Total number of GI AEs, E = number of events [3, 6]: 31 | Total number of GI AEs, N = number of subjects [3, 6]: 13 | Total number of GI AEs, percentage of subjects [3, 6]: 92.9% | Upper abdominal pain, E = number of events [3, 6]: 2 | Upper abdominal pain, N = number of subjects [3, 6]: 2 | Upper abdominal pain, percentage of subjects [3, 6]: 14.3% | Vomiting, E = number of events [3, 6]: 4 | Vomiting, N = number of subjects [3, 6]: 3 | Vomiting, percentage of subjects [3, 6]: 21.4% | Asymptomatic hypoglycaemic episodes, N = number of subjects ([3]; 1.8 mg liraglutide): 13 | Asymptomatic hypoglycaemic episodes, percentage of subjects ([3]; 1.8 mg liraglutide): 92.9% | Documented symptomatic hypoglycaemic episodes, N = number of subjects ([3]; 1.8 mg liraglutide): 14 | Documented symptomatic hypoglycaemic episodes, percentage of subjects ([3]; 1.8 mg liraglutide): 100% | Probable symptomatic hypoglycaemic episodes, E = number of events ([3]; 1.8 mg liraglutide): 4 | Probable symptomatic hypoglycaemic episodes, N = number of subjects ([3]; 1.8 mg liraglutide): 1 | Probable symptomatic hypoglycaemic episodes, percentage of subjects ([3]; 1.8 mg liraglutide): 7.1% | Severe hypoglycaemic episodes, E = number of events ([3]; 1.8 mg liraglutide): 0 (0) 0/ | Severe hypoglycaemic episodes, N = number of subjects ([3]; 1.8 mg liraglutide): 0 (0) 0/ | Severe hypoglycaemic episodes, percentage of subjects ([3]; 1.8 mg liraglutide): 0 (0) 0/ % | Total ADA classified hypoglycaemic episodes, E = number of events ([3]; 1.8 mg liraglutide): 316 | Total ADA classified hypoglycaemic episodes, N = number of subjects ([3]; 1.8 mg liraglutide): 14 | Total ADA classified hypoglycaemic episodes, percentage of subjects ([3]; 1.8 mg liraglutide): 100% | Number of adverse events (AEs) compared to placebo ([3]; during liraglutide treatment): higher | Gastrointestinal (GI) AEs compared to placebo ([3]; liraglutide adjunct to insulin): more | Number of hypoglycaemias or overall number of hypoglycaemic episodes (ADA classification) ([3]; liraglutide adjunct to insulin): did not affect | Severity of GI AEs ([3]; liraglutide adjunct to insulin): mild or moderate | Safety or tolerability issues ([3]; short-term trial, subjects with type 1 diabetes): No unexpected liraglutide-related safety or tolerability issues
